Measurements taken from patent US20210267978A1, “NANOPARTICLE FORMULATIONS OF IKE AND METHODS OF USE THEREOF” (The Trustees of Columbia University in the City of New York, priority 2018, published 2021).
Like-named read-outs stand apart in the source and are kept apart here.

Key:
[1] = Pharmacokinetic analysis in mice with three administration routes (plasma, LC-MS); type: in vivo; details: NOD/SCID mice; for AUC(0-t) / Cmax / Tmax / half-life / concentration at 8 h: mouse; for concentration at 8 h: read-out: Clast
Protocol: NOD/SCID mice 12-weeks of age and ˜28 g weight were weighed before injection and divided into groups of 3 mice per cage. IKE was dissolved in 5% DMSO/95% Hank's Balanced Salt Solution (HBSS) (Thermo Fisher Scientific, 14025076), pH 4, to create a 5 mg/mL solution. 5% DMSO/95% HBSS at pH 4 solution (Vehicle 1) without IKE was used as vehicle. The solution was sterilized using a 0.22 μm Steriflip filter unit (Thomas Scientific 1189Q46). Mice were dosed using three different routes, IP and PO with 50 mg/kg IKE, and IV with 17 mg/kg IKE. Samples were collected at 0, 1, 3, 4, and 8 h from three mice per time point. Additionally, three mice per group were used as control by administration with equivalent amount of vehicle 1 by IP, PO, and IV, and samples were collected at 8 h. At the appropriate time, mice were sacrificed by CO2 asphyxiation for 3 min and ˜0.5 mL of blood was collected via cardiac puncture. Blood was immediately put into K3 EDTA micro tube (SARSTEDT 41.1504.105) and placed on ice. Samples were centrifuged for 10 min at 2,100×g at 4° C., plasma was then transferred to a clean tube. Plasma samples were flash frozen in liquid nitrogen and stored at −80° C. IKE was extracted from plasma by adding 900 μL acetonitrile to 100 μL plasma. Samples were mixed for at least 5 min by rotating at room temperature and were sonicated prior to […] for 10 min at 4,000×g and 4° C. The supernatant was removed and dried on a GeneVac evaporator overnight on an HPLC setting. After drying, the samples were resuspended in 100 μL of methanol and analyzed on the liquid chromatography mass spectrometry (LC-MS), with each sample analyzed twice. Quality control standard samples were prepared by dissolving IKE in 100 μL water and extraction with the same procedures to ensure that the extraction was efficient. LC-MS analysis was performed on a platform comprising a Thermo Scientific Dionex Ultimate 3000RS controlled by Chromeleon (Dionex) and a Bruker amazon SL ESI ion-trap mass spectrometer.
Chromatographic separation was performed at 20° C. on Agient Eclipse Plus C18 column (2.1×50 mm, 3.5 μm) at 20° C. over a 12 minute gradient elution. Mobile phase A consisted of water with 0.1% acetic acid v/v and mobile phase B was methanol with 0.1% acetic acid v/v. After injection, the gradient was held at 80% mobile phase A for 1 min. The gradient was then ramped in a linear fashion to 80% mobile phase over 0.5 min. Over the next 3.5 min, the gradient was ramped in linear fashion to 100% mobile phase B and held at 100% mobile phase B for 3.25 min. The gradient was then ramped in a linear fashion to 80% mobile phase over 0.5 min and held there for the duration of the run. The flow rate was set to 400 μL/min and injection volumes were 5 μL. The retention time for IKE in this gradient was 2.8 min.
Mass spectrometry analysis was performed on a Bruker Amazon SL (Billerca, MA) in positive ESI mode. Trap Control was used to control the ESI settings with the inlet capillary held at −4500 V and the end plate offset at −500 V. Nitrogen was used as the desolvation gas. Hystar v 3.2 was used to integrate the UHPLC and MS applications, and data analysis was performed with the Compass DataAnalysis software. The base peak chromatogram at m/z 655.2 with a width of ±0.1 was integrated and peak area quantified by standard curve.
Pharmacokinetics (PK) of IKE was assessed using Prism fitted with lognormal of one phase exponential decay.

SUDHL6 cells = test: qPCR analysis of gene expression in cell culture; type: cell-based
Protocol: To perform qPCR analysis in cell culture, DLBCL cells were treated with 0-10 μM IKE, Fer-1, or β-Me for the indicated times. RNA was extracted using the Qiashredder and Qiagen RNeasy Mini kits (Qiagen) according to the manufacture's protocol. 2 μg RNA from each sample was reversed transcribed to cDNA using a High Capacity cDNA Reverse Transcription Kit (Thermo Fisher Scientific, 4368814). Quantitative PCR reactions were performed using Power SYBR Green PCR Master Mix (Applied Biosystems) with triplicate measurement on ViiA 7 Real-Time PCR instrument (Thermo Fischer). HPRT1 was used as an internal reference. Differences in mRNA levels compared with HPRT1 were computed between vehicle and experimental groups using the ΔΔCt method. The primers used in the study were listed below.

CC(C)Oc1ccc(C(=O)Cn2ccnc2)cc1-n1c(CN2CCN(C(=O)COc3ccc(Cl)cc3)CC2)nc2ccccc2c1=O [IKE, Imidazole ketone erastin]
Tlast ([1]; IP, 50 mg/kg IKE): 8 h | Tlast ([1]; IV, 17 mg/kg IKE): 8 h | Tlast ([1]; PO, 50 mg/kg IKE): 8 h | AUC(0-t) ([1]; IP, 50 mg/kg IKE): 53900 ng·h/mL | Cmax ([1]; IP, 50 mg/kg IKE): 19500 ng/mL | Tmax ([1]; IP, 50 mg/kg IKE): 18.6 min | half-life ([1]; IP, 50 mg/kg IKE): 109 min | concentration at 8 h ([1]; IP, 50 mg/kg IKE): 1530 ng/mL | AUC(0-t) ([1]; IV, 17 mg/kg IKE): 17000 ng·h/mL | Cmax ([1]; IV, 17 mg/kg IKE): 11400 ng/mL | Tmax ([1]; IV, 17 mg/kg IKE): 0 min | half-life ([1]; IV, 17 mg/kg IKE): 78.6 min | concentration at 8 h ([1]; IV, 17 mg/kg IKE): 16 ng/mL | AUC(0-t) ([1]; PO, 50 mg/kg IKE): 5720 ng·h/mL | Cmax ([1]; PO, 50 mg/kg IKE): 5200 ng/mL | Tmax ([1]; PO, 50 mg/kg IKE): 43.2 min | half-life ([1]; PO, 50 mg/kg IKE): 57.6 min | concentration at 8 h ([1]; PO, 50 mg/kg IKE): 48 ng/mL | GPX4, CBS and ACSL4 expression (SUDHL6 cells; DLBCL cells, IKE treatment (data not shown)): not upregulated | SLC7A11, PTGS2 and CHAC1 expression (SUDHL6 cells; SUDHL6 cells following IKE treatment): significantly increased | SLC7A11 expression induced starting from (time post incubation) (SUDHL6 cells; SUDHL-6 cells, 500 nM IKE): 3 h | expression of lipid metabolism genes ACC1, ELOVL7, ATGL, sPLA2F, LPEAT1, LPCAT4, ALOX12, ALOX15 (SUDHL6 cells; SUDHL-6 cells, 500 nM IKE): upregulated | highest mRNA change (CHAC1) (SUDHL6 cells; SUDHL-6 cells, 500 nM IKE): 33 fold | increased PTGS2 expression (SUDHL6 cells; SUDHL-6 cells, 500 nM IKE, starting from 5 minutes): over 10 fold | increased CHAC1 expression (SUDHL6 cells; SUDHL-6 cells, 500 nM IKE, starting from post 5 minutes): over 5 fold
